Species: Rattus norvegicus
Experiment: Open TG-GATES - Regimen: Single
Assay type: toxicity, organism-based, Sprague-Dawley
Parameters: regimen Single, gender Male, age 6 weeks
Conditions: in vivo, po, 0 mg/kg, route gavage, dose level Control; for APTT / Bas / Eos / Fbg / Hb / Ht / Lym / MCH / MCHC / MCV / Mono / Neu / PT / Plat / RBC / Ret / WBC: tissue Blood; for KIDNEY_L / KIDNEY_R / KIDNEY_TOTAL: tissue Kidney; for LIVER: tissue Liver; for A/G / ALP / ALT / AST / BUN / CRE / Ca / Cl / DBIL / GLC / IP / K / LDH / Na / PL / RALB / TBIL / TC / TG / TP / gamma-GTP: tissue Plasma

Cn1cnc([N+](=O)[O-])c1Sc1ncnc2nc[nH]c12 [AZATHIOPRINE]
TERMINAL_BW (3 h): 189.8 g | APTT (3 h): 23.1 s | Bas (3 h): 0% | Eos (3 h): 1% | Fbg (3 h): 288.2 mg/dL | Hb (3 h): 13.4 g/dL | Ht (3 h): 39.3% | Lym (3 h): 78.6% | MCH (3 h): 21.9 pg | MCHC (3 h): 34% | MCV (3 h): 64.5 fL | Mono (3 h): 2.4% | Neu (3 h): 17.2% | PT (3 h): 15.7 s | Plat (3 h): 117.7 x10_4/uL | RBC (3 h): 610.8 x10_4/ul | Ret (3 h): 9.3% | WBC (3 h): 98.5 x10_2/uL | KIDNEY_L (3 h): 0.9 g | KIDNEY_R (3 h): 0.9 g | KIDNEY_TOTAL (3 h): 1.7 g | LIVER (3 h): 8.6 g | A/G (3 h): 1.1 | ALP (3 h): 1465.6 IU/L | ALT (3 h): 46.8 IU/L | AST (3 h): 78.4 IU/L | BUN (3 h): 11.8 mg/dL | CRE (3 h): 0.2 mg/dL | Ca (3 h): 10.3 mg/dL | Cl (3 h): 107 meq/L | DBIL (3 h): 0 mg/dL | GLC (3 h): 175.4 mg/dL | IP (3 h): 8.2 mg/dL | K (3 h): 3.9 meq/L | LDH (3 h): 217.6 IU/L | Na (3 h): 142.6 meq/L | PL (3 h): 129.6 mg/dL | RALB (3 h): 2.9 g/dL | TBIL (3 h): 0.006 mg/dL | TC (3 h): 79 mg/dL | TG (3 h): 46 mg/dL | TP (3 h): 5.5 g/dL | gamma-GTP (3 h): 1.2 IU/L | TERMINAL_BW (6 h): 186.3 g | APTT (6 h): 21.1 s | Bas (6 h): 0% | Eos (6 h): 1% | Fbg (6 h): 307.4 mg/dL | Hb (6 h): 13.2 g/dL | Ht (6 h): 39.3% | Lym (6 h): 73.8% | MCH (6 h): 21.6 pg | MCHC (6 h): 33.7% | MCV (6 h): 64.1 fL | Mono (6 h): 2.4% | Neu (6 h): 22% | PT (6 h): 15.7 s | Plat (6 h): 124.9 x10_4/uL | RBC (6 h): 612.4 x10_4/ul | Ret (6 h): 9.5% | WBC (6 h): 66 x10_2/uL | KIDNEY_L (6 h): 0.9 g | KIDNEY_R (6 h): 0.9 g | KIDNEY_TOTAL (6 h): 1.7 g | LIVER (6 h): 8.4 g | A/G (6 h): 1.3 | ALP (6 h): 1451.6 IU/L | ALT (6 h): 42.8 IU/L | AST (6 h): 70.8 IU/L | BUN (6 h): 11.6 mg/dL | CRE (6 h): 0.1 mg/dL | Ca (6 h): 10.4 mg/dL | Cl (6 h): 106.4 meq/L | DBIL (6 h): 0.002 mg/dL | GLC (6 h): 183.8 mg/dL | IP (6 h): 8.8 mg/dL | K (6 h): 4.2 meq/L | LDH (6 h): 254.6 IU/L | Na (6 h): 141.6 meq/L | PL (6 h): 137.8 mg/dL | RALB (6 h): 3.1 g/dL | TBIL (6 h): 0.014 mg/dL | TC (6 h): 77.6 mg/dL | TG (6 h): 66.8 mg/dL | TP (6 h): 5.5 g/dL | gamma-GTP (6 h): 1 IU/L | TERMINAL_BW (9 h): 190.4 g | APTT (9 h): 20.8 s | Bas (9 h): 0% | Eos (9 h): 0.6% | Fbg (9 h): 301.8 mg/dL | Hb (9 h): 12.6 g/dL | Ht (9 h): 37.7% | Lym (9 h): 79.6% | MCH (9 h): 21.6 pg | MCHC (9 h): 33.2% | MCV (9 h): 65 fL | Mono (9 h): 2% | Neu (9 h): 16.2% | PT (9 h): 15.2 s | Plat (9 h): 127.2 x10_4/uL | RBC (9 h): 582 x10_4/ul | Ret (9 h): 9.9% | WBC (9 h): 93.5 x10_2/uL | KIDNEY_L (9 h): 0.9 g | KIDNEY_R (9 h): 0.9 g | KIDNEY_TOTAL (9 h): 1.9 g | LIVER (9 h): 8.2 g | A/G (9 h): 1.3 | ALP (9 h): 1520.4 IU/L | ALT (9 h): 38 IU/L | AST (9 h): 72.8 IU/L | BUN (9 h): 10.6 mg/dL | CRE (9 h): 0.1 mg/dL | Ca (9 h): 10.5 mg/dL | Cl (9 h): 105.6 meq/L | DBIL (9 h): 0.004 mg/dL | GLC (9 h): 176.2 mg/dL | IP (9 h): 9.5 mg/dL | K (9 h): 4.3 meq/L | LDH (9 h): 182.4 IU/L | Na (9 h): 141.2 meq/L | PL (9 h): 125.2 mg/dL | RALB (9 h): 3 g/dL | TBIL (9 h): 0.016 mg/dL | TC (9 h): 76.4 mg/dL | TG (9 h): 46.2 mg/dL | TP (9 h): 5.3 g/dL | gamma-GTP (9 h): 1 IU/L | TERMINAL_BW (24 h): 202.7 g | APTT (24 h): 21.7 s | Bas (24 h): 0% | Eos (24 h): 0.6% | Fbg (24 h): 308.2 mg/dL | Hb (24 h): 13.5 g/dL | Ht (24 h): 39.6% | Lym (24 h): 77.4% | MCH (24 h): 22.2 pg | MCHC (24 h): 34.1% | MCV (24 h): 65.2 fL | Mono (24 h): 2% | Neu (24 h): 18.6% | PT (24 h): 16.2 s | Plat (24 h): 117.2 x10_4/uL | RBC (24 h): 607 x10_4/ul | Ret (24 h): 8.8% | WBC (24 h): 97.8 x10_2/uL | KIDNEY_L (24 h): 0.9 g | KIDNEY_R (24 h): 0.9 g | KIDNEY_TOTAL (24 h): 1.7 g | LIVER (24 h): 9.6 g | A/G (24 h): 1.2 | ALP (24 h): 1642 IU/L | ALT (24 h): 46 IU/L | AST (24 h): 74.6 IU/L | BUN (24 h): 16.8 mg/dL | CRE (24 h): 0.1 mg/dL | Ca (24 h): 11 mg/dL | Cl (24 h): 106.8 meq/L | DBIL (24 h): 0 mg/dL | GLC (24 h): 185.6 mg/dL | IP (24 h): 7 mg/dL | K (24 h): 3.9 meq/L | LDH (24 h): 223.2 IU/L | Na (24 h): 143.2 meq/L | PL (24 h): 156.8 mg/dL | RALB (24 h): 3.1 g/dL | TBIL (24 h): 0.006 mg/dL | TC (24 h): 86.8 mg/dL | TG (24 h): 102.8 mg/dL | TP (24 h): 5.6 g/dL | gamma-GTP (24 h): 1 IU/L

Source: ChEMBL document CHEMBL3885861, “Open TG-GATES”
